Test results from patent US4699909A, “Benzotriazolyl-4,5-dihydro-3(2H)-pyridazinones” (Dr. Karl Thomae GmbH, priority 1981, dated 1987).

Tests used:
thrombocyte aggregation = experiment: Thrombocyte aggregation according to Born and Cross (collagen-induced, platelet-rich plasma); format: cell-based; conditions: platelet-rich plasma from healthy human test subjects; aggregation initiated by collagen
Method: Determination of the thrombocyte aggregation according to Born and Cross [J. Physiol. 170, 397 (1964)]
The thrombocyte aggregation was determined in platelet-rich plasma from healthy human test subjects. The course of decrease in optical density after the administration of standard commercial collagen (made by the Sigma Co., St. Louis, Mo.) containing 1 mg of collagen fibrils per ml was measured photometrically and recorded. The rate of aggregation (Vmax) was deduced from the angle of inclination of the density curve. The point on the curve where there was most light transmittance was used to calculate the optical density (O.D.). To initiate maximum aggregation, about 0.01 ml of the collagen solution was added to 1 ml of platelet-rich plasma.

anesthetized cat = experiment: Hypotensive and positive inotropic activity in the anesthetized cat; format: in vivo; conditions: average; for Change in blood pressure (first value of the printed pair) / Change in blood pressure (second value of the printed pair): arterial pressure, aorta abdominalis; for Change in blood pressure (first value of the printed pair): first number before the slash; for Change in blood pressure (second value of the printed pair): second number after the slash; for Increase in dp/dt: left ventricle pressure, dp/dtmax
Method: Determination of hypotensive and positive inotropic activity in the anesthetized cat
The tests were carried out on cats which had been anesthetized with sodium pentobarbital (40 mg/kg i.p.). The animals breathed spontaneously. The arterial blood pressure was measured in the aorta abdominalis using a Statham pressure transducer (P 23 Dc). To determine the positive inotropic effect, the pressure in the left ventricle of the heart was measured using a catheter-tip manometer (Milliar PC-350 A). From this, the contractility parameter (dp/dtmax was obtained by means of an analog differentiator.
The test compounds were injected into a vena femoralis. Physiological saline solution or Polydiol 200 was used as the solvent. Each compound was tested on at least 3 cats in a dosage of 0.1 or 2.0 mg/kg i.v. The duration of activity of the test compounds was at least 45 minutes in each case.

Acute toxicity = conditions: in vivo, po; peroral, mouse
Method: In therapeutic doses the test substances are non-toxic. For example, compound B has a peroral LD50 of >50 mg/kg in the mouse.

Structure (SMILES) | EC50 (thrombocyte aggregation) | Change in blood pressure (first value of the printed pair) (anesthetized cat; 0.1 mg/kg i.v.) | Change in blood pressure (second value of the printed pair) (anesthetized cat; 0.1 mg/kg i.v.) | Increase in dp/dt (anesthetized cat; 0.1 mg/kg i.v.) | Change in blood pressure (first value of the printed pair) (anesthetized cat; 2.0 mg/kg i.v.) | Change in blood pressure (second value of the printed pair) (anesthetized cat; 2.0 mg/kg i.v.) | Increase in dp/dt (anesthetized cat; 2.0 mg/kg i.v.) | LD50 (Acute toxicity)
CC1CC(=O)NN=C1c1ccc2c(c1)nnn2CCN(C)C (stereo not shown) [F, 5-Methyl-6-[1'-(2-dimethylaminoethyl)-benzotriazol-5'-yl]-4,5-dihydro-3(2H)-pyridazinone] | 0.3 µM |  |  |  |  |  |  | 
CC1CC(=O)NN=C1c1ccc2c(c1)nnn2C(C)C (stereo not shown) [C, 5-Methyl-6-(1'-isopropyl-benzotriazol-5'-yl)-4,5-dihydro-3(2H)-pyridazinone] | 0.033 µM | -27 mm Hg | -33 mm Hg | +116% |  |  |  | 
COc1ccc(Cn2nnc3cc(C4=NNC(=O)CC4C)ccc32)cc1 (stereo not shown) [Compound E, 5-Methyl-6-(1'-p-methoxybenzyl-benzotriazol-5'-yl)-4,5-dihydro-3(2H)-pyridazinone] |  | -48 mm Hg | -48 mm Hg | +167% |  |  |  | 
COc1ccc(C(=O)n2nnc3cc(C4=NNC(=O)CC4C)ccc32)cc1 (stereo not shown) [A, 5-Methyl-6-(1'-p-methoxybenzoyl-benzotriazol-5'-yl)-4,5-dihydro-3(2H)-pyridazinone] | 0.27 µM | -16 mm Hg | -16 mm Hg | +105% |  |  |  | 
CC1CC(=O)NN=C1c1ccc2c(c1)nnn2C(=O)C1CCCCC1 (stereo not shown) [B, 5-Methyl-6-(1'-cyclohexanoyl-benzotriazol-5'-yl)-4,5-dihydro-3(2H)-pyridazinone] | 0.28 µM |  |  |  | -60 mm Hg | -37 mm Hg | +154% | > 50 mg/kg
CCn1nnc2cc(C3=NNC(=O)CC3C)ccc21 (stereo not shown) [D, 5-Methyl-6-(1'-ethyl-benzotriazol-5'-yl)-4,5-dihydro-3(2H)-pyridazinone] | 0.041 µM | -30 mm Hg | -32 mm Hg | +125% |  |  |  | 
CC1CC(=O)NN=C1c1ccc2c(c1)nnn2C (stereo not shown) [G, 5-Methyl-6-(1'-methyl-benzotriazol-5'-yl)-4,5-dihydro-3(2H)-pyridazinone] | 0.051 µM | -33 mm Hg | -38 mm Hg | +168% |  |  |  | 
